33 compounds from patent US20230150981A1, “N-HETEROARYLALKYL-2-(HETEROCYCLYL AND HETEROCYCLYLMETHYL) ACETAMIDE DERIVATIVES AS SSTR4 AGONISTS” (Takeda Pharmaceutical Compnay Limited, priority 2020, published 2023) can be followed below.

One assay has as its target T1, SSTR1 (Homo sapiens, UniProt P30872).
T1 construct: purchased Perkin Elmer ES-520-M400UA; host or cells: CHO-K1 membranes
Briefly: SSTR1 I-125 somatostatin competition binding assay for selectivity versus SSTR1 (CHO-K1 membranes). The note with it: competition with I-125 somatostatin, membranes from CHO-K1 overexpressing SSTR1; read-out: SSTR1 Binding pIC50 (converted). On the procedure:
SSTR1 I-125 Somatostatin Competition Binding Assay for Selectivity Versus SSTR1
Membranes from CHO-K1 cells overexpressing SSTR1 are purchased from Perkin Elmer (catalog number ES-520-M400UA). Test compounds are suspended in DMSO and then diluted in assay buffer (25 mM HEPES pH 7.4, 10 mM MgCl2, 1 mM CaCl2), 0.5% BSA) plus 0.4 nM I-125 labeled somatostatin (Perkin Elmer catalog number NEX389). Fifty μL of compound/I-125 somatostatin in assay buffer are added per well to 96-well poly-propylene plate. Then 10 μg of SSTR1 membranes in 50 μL assay buffer are added per well. The plate is incubated for 60 minutes at room temperature. FilterMat A filters (Perkin Elmer catalog number 1450-421) are pre-soaked in 0.5% PEI (Sigma catalog number P3143). The contents of the assay plate are transferred to filters with a TomTech harvester and washed 5 times with 20 mM HEPES, 100 mM NaCl. The filters are dried in a microwave oven then transferred to sample bag containing a scintillator sheet (Perkin Elmer catalog number 1450-441). The scintillator sheets are melted to the filters using a heat block. The filters are then read in a MicroBeta scintillation counter. Binding Ki curves are generated using Activity Base for Screening Data Management and the results are reported as pIC50.

Assay [1] deals with T2, SSTR4 (Homo sapiens, UniProt P31391).
T2 construct: host or cells: CHO-K1
T2 sequence (P31391 whole entry): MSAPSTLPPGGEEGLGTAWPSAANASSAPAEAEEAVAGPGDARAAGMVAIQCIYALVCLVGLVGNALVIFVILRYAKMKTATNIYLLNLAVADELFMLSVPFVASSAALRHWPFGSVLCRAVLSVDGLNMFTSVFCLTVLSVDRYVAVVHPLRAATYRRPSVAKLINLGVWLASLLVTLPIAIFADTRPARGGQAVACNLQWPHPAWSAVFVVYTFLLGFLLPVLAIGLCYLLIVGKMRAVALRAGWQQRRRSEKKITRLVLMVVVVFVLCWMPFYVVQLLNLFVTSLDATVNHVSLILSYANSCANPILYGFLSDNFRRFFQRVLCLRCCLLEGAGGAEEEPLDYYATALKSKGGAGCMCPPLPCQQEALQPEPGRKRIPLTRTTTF
Briefly: SSTR4 I-125 somatostatin competition binding assay (CHO-K1 membranes). The note with it: competition with I-125 somatostatin, membranes from CHO-K1 overexpressing SSTR4; read-out: SSTR4 Binding pIC50 (converted). The protocol: SSTR4 I-125 Somatostatin Competition Binding Assay
Membranes from CHO-K1 cells overexpressing SSTR4 are purchased from Perkin Elmer (catalog number ES-524-M400UA). Test compounds are suspended in DMSO and then diluted in assay buffer (25 mM HEPES pH 7.4, 10 mM MgCl2, 1 mM CaCl2), 0.5% BSA) plus 0.2 nM I-125 labeled somatostatin (Perkin Elmer catalog number NEX389). Fifty μL of compound/I-125 somatostatin in assay buffer are added per well to 96-well poly-propylene plate. Then 1 μg of SSTR4 membranes in 50 μL assay buffer are added per well. The Plate is incubated for 60 minutes at room temperature. FilterMat A filters (Perkin Elmer catalog number 1450-421) are pre-soaked in 0.5% PEI (Sigma catalog number P3143). The contents of the assay plate are transferred to filters with a TomTech harvester and washed 5 times with 20 mM HEPES, 100 mM NaCl. The filters are dried in a microwave oven then transferred to sample bag containing a scintillator sheet (Perkin Elmer catalog number 1450-441). The scintillator sheets are melted to filters using a heat block. The filters are then read in a MicroBeta scintillation counter. Binding Ki curves are generated using Activity Base for Screening Data Management and the results are reported as pIC50.

The target of assay [2] is T2, SSTR4. Put plainly: Inhibition of forskolin stimulated cAMP in CHO-K1 cells overexpressing SSTR4. The note with it: read-out: SSTR4 Activity pEC50 (converted). In kind it is cell-based. Put shortly: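 CHO-K1 cells overexpressing SSTR4 treated 30 min at room temperature with compound in Krebs Ringer buffer containing 0.5% BSA, 300 μM IBMX and 350 nM forskolin. Intracellular cAMP measured by HTRF LANCE Ultra (665/615 nm); pEC50 values reported.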

T1 sequence (P30872 whole entry): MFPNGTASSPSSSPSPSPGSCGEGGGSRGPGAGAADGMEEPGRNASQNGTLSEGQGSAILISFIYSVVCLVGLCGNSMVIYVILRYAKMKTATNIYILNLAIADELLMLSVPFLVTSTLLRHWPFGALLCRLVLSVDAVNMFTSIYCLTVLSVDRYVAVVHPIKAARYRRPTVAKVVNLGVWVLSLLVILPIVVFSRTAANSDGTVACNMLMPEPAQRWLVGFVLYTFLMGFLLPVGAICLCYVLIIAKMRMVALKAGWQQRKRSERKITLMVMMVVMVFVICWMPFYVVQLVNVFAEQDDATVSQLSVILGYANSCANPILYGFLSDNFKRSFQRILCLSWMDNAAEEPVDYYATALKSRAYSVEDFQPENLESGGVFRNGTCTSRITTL

Turning to `C[C@@H](CN1CCC1)C(=O)NC(C)(C)c1ccccc1Cl` (single isomer, unassigned) [Example 134], the IC50 on SSTR1 is 6.31 µM; on SSTR4 [1], 0.0501 µM. For the same compound, on SSTR4 [2], the EC50 was 0.00126 µM.

Consider `C[C@H](CN1CCCC1)C(=O)NC(C)(C)c1ccccc1Cl` (single isomer, unassigned) [Example 136], for which the IC50 is 10 µM at SSTR1 and 0.126 µM on SSTR4 [1]. Moreover, the EC50 on SSTR4 [2] is 0.00631 µM.

As for `COc1ccc(C(C)(C)NC(=O)[C@H](C)CN2CCC2)cc1` (single isomer, unassigned) [Example 138], the IC50 was 15.8 µM at SSTR1 and 0.126 µM on SSTR4 [1]. In addition, the EC50 at SSTR4 [2] is 0.0126 µM.

For the compound `Cc1ccccc1C(C)(C)NC(=O)[C@H](C)CN1CCC1` (single isomer, unassigned) [Example 140], the IC50 on SSTR1 is 12.6 µM; on SSTR4 [1], 0.0501 µM. For the same compound, on SSTR4 [2], the EC50 was 0.00631 µM.

Take `Cc1c(F)cccc1C(C)(C)NC(=O)[C@H](C)CN1CCC1` (single isomer, unassigned) [Example 142]: the IC50 at SSTR1 is 2 µM; at SSTR4 [1], 0.0158 µM. Further, the EC50 at SSTR4 [2] is 0.00158 µM.

`Cc1cccc(C(C)(C)NC(=O)[C@@H](C)CN2CCC2)c1Cl` (single isomer, unassigned) [Example 145]: the values for the IC50 at SSTR1 and on SSTR4 [1] were 1.26 µM and 0.02 µM, respectively. Besides, the EC50 at SSTR4 [2] was 0.000794 µM.

Turning to `COc1c(C)cccc1C(C)(C)NC(=O)[C@H](C)CN1CCC1` (single isomer, unassigned) [Example 146], the IC50 at SSTR1 was 2.51 µM; on SSTR4 [1], 0.02 µM. The EC50 at SSTR4 [2] was 0.00251 µM.

For the compound `Cc1ccc(C(C)(C)NC(=O)[C@@H](C)CN2CCC2)cc1` (single isomer, unassigned) [Example 149], the results for the IC50 on SSTR1 and at SSTR4 [1] were 6.31 µM and 0.0501 µM, respectively. The EC50 on SSTR4 [2] was 0.00316 µM.

For `C[C@@H](CN1CCC1)C(=O)NC1(c2ccccc2F)CC1` (single isomer, unassigned) [Example 151], the IC50 on SSTR1 was 7.94 µM; on SSTR4 [1], 0.1 µM. For the same compound, on SSTR4 [2], the EC50 is 0.00794 µM.

Take `C[C@@H](CN1CCC1)C(=O)NC(C)(C)c1cccc(F)c1` (single isomer, unassigned) [Example 153]: the IC50 is 6.31 µM at SSTR1 and 0.0794 µM at SSTR4 [1]. In addition, at SSTR4 [2], the EC50 was 0.00398 µM.

For the compound `C[C@@H](CN1CCC1)C(=O)NC(C)(C)c1ccc(Cl)cc1` (single isomer, unassigned) [Example 155], the IC50 is 3.16 µM on SSTR1 and 0.0398 µM on SSTR4 [1]. Further, on SSTR4 [2], the EC50 is 0.00251 µM.

In the case of `C[C@H](CN1CCC1)C(=O)NC(C)(C)c1ccccc1F` (single isomer, unassigned) [Example 156], the IC50 was 20 µM on SSTR1 and 0.1 µM on SSTR4 [1]. The EC50 at SSTR4 [2] is 0.00794 µM.

Turning to `O=C(CCN1CCC1)N[C@H](c1cc(F)ccc1F)C(F)F` (single isomer, unassigned) [Example 169], the IC50 on SSTR1 is 39.8 µM; at SSTR4 [1] it was 0.316 µM. Moreover, the EC50 at SSTR4 [2] is 0.00251 µM.

`COc1c(F)cccc1C(C)(C)NC(=O)[C@H](C)CN1CCC1` (single isomer, unassigned) [Example 171]: the values for the IC50 at SSTR1 and on SSTR4 [1] were 3.98 µM and 0.0158 µM, respectively. Further, the EC50 at SSTR4 [2] was 0.002 µM.

As to `Cc1ccc([C@H](CF)NC(=O)CCN2CCC2)cc1` (single isomer, unassigned) [Example 175], the IC50 was 31.6 µM on SSTR1 and 0.158 µM on SSTR4 [1]. In addition, the EC50 on SSTR4 [2] is 0.02 µM.

As to `C[C@H](CN1CCC1)C(=O)N[C@H](c1ccccc1)C(F)F` (single isomer, unassigned) [Example 181], the IC50 is 1.58 µM at SSTR1 and 0.00631 µM at SSTR4 [1]. Besides, the EC50 at SSTR4 [2] is 0.000158 µM.

Consider `CC[C@H](CN1CCC1)C(=O)NC(C)(C)c1ccc(F)cc1` (single isomer, unassigned) [Example 182], for which the IC50 is 1 µM on SSTR1 and 0.0126 µM on SSTR4 [1]. The EC50 on SSTR4 [2] is 0.00158 µM.

Consider `CC[C@@H](CN1CCC1)C(=O)NC(C)(C)c1ccc(F)cc1` (single isomer, unassigned) [Example 183], for which the IC50 at SSTR1 is 20 µM; on SSTR4 [1], 0.501 µM. On SSTR4 [2], the EC50 is 0.0501 µM.

Turning to `CC[C@H](CN1CCC1)C(=O)NC(C)(C)c1cccc(F)c1` (single isomer, unassigned) [Example 184], the results for the IC50 at SSTR1 and at SSTR4 [1] were 2 µM and 0.0158 µM, respectively. The EC50 at SSTR4 [2] was 0.000631 µM.

As to `CC[C@@H](CN1CCC1)C(=O)NC(C)(C)c1ccc(C)cc1` (single isomer, unassigned) [Example 187], the values for the IC50 at SSTR1 and on SSTR4 [1] were 1.58 µM and 0.02 µM, respectively. The EC50 on SSTR4 [2] is 0.000794 µM.

As to `O=C(CCN1CCC1)NC(c1ccc(F)cc1)C(F)(F)F` (single isomer, unassigned) [Example 190], the IC50 on SSTR1 is 3.16 µM; at SSTR4 [1], 0.02 µM. Also, on SSTR4 [2], the EC50 is 0.002 µM.

`O=C(CCN1CCC1)NC(c1cccc(Cl)c1)C(F)(F)F` (single isomer, unassigned) [Example 191]: the IC50 on SSTR1 is 2.51 µM; on SSTR4 [1] it was 0.01 µM. Besides, at SSTR4 [2], the EC50 was 0.002 µM.

Take `O=C(CCN1CCC1)NC(c1cccc(Cl)c1)C(F)(F)F` (single isomer, unassigned) [Example 192]: the figures for the IC50 at SSTR1 and at SSTR4 [1] were 31.6 µM and 0.126 µM, respectively. Besides, the EC50 at SSTR4 [2] was 0.0158 µM.

Regarding `O=C(CCN1CCC1)NC(c1cccc(F)c1)C(F)(F)F` (single isomer, unassigned) [Example 193], the IC50 is 31.6 µM at SSTR1 and 0.2 µM at SSTR4 [1]. The EC50 on SSTR4 [2] is 0.0158 µM.

Take `O=C(CCN1CCCC1)N[C@H](c1cccc(Cl)c1)C(F)F` (single isomer, unassigned) [Example 198]: the IC50 on SSTR1 was 7.94 µM; on SSTR4 [1], 0.02 µM. Further, the EC50 on SSTR4 [2] was 0.00631 µM.

`CC[C@@H](CN1CCC1)C(=O)NC(C)(C)c1ccccc1F` (single isomer, unassigned) [Example 200]: the IC50 at SSTR1 was 5.01 µM; at SSTR4 [1] it was 0.0251 µM. Also, the EC50 on SSTR4 [2] was 0.002 µM.

On to `O=C(CCN1CCC1)N[C@H](c1ccccc1)C(F)F` (single isomer, unassigned) [Example 201], for which the IC50 on SSTR1 is 25.1 µM; at SSTR4 [1], 0.0631 µM. Moreover, the EC50 on SSTR4 [2] is 0.0316 µM.

Take `C[C@H](CN1CCC1)C(=O)N[C@@H](CF)c1ccccc1` (single isomer, unassigned) [Example 205]: the results for the IC50 on SSTR1 and at SSTR4 [1] were 2.51 µM and 0.0251 µM, respectively. In addition, the EC50 at SSTR4 [2] was 0.00126 µM.

Consider `Cc1ccc(C(NC(=O)CCN2CCC2)C(F)(F)F)cc1` (single isomer, unassigned) [Example 207], for which the IC50 at SSTR1 is 5.01 µM; at SSTR4 [1] it was 0.0398 µM. Further, at SSTR4 [2], the EC50 was 0.00158 µM.

With `O=C(CCN1CCC1)NC(c1cccc(F)c1)C(F)(F)F` (single isomer, unassigned) [Example 208], the figures for the IC50 on SSTR1 and on SSTR4 [1] were 15.8 µM and 0.0398 µM, respectively. Moreover, at SSTR4 [2], the EC50 was 0.00316 µM.

As for `O=C(CCN1CCC1)NC(c1ccccc1F)C(F)(F)F` (single isomer, unassigned) [Example 209], the IC50 at SSTR1 was 20 µM; on SSTR4 [1], 0.126 µM. The EC50 at SSTR4 [2] was 0.00126 µM.

Consider `Cc1ccccc1C(NC(=O)CCN1CCC1)C(F)(F)F` (single isomer, unassigned) [Example 210], for which the IC50 was 3.98 µM on SSTR1 and 0.0316 µM on SSTR4 [1]. Besides, the EC50 at SSTR4 [2] was 0.01 µM.

Consider `Cc1cccc2c(C(C)(C)NC(=O)CC3CCCN3C)nn(C)c12` (stereo not drawn) [Example 1, N-(2-(1,7-dimethyl-1H-indazol-3-yl)propan-2-yl)-2-(1-methylpyrrolidin-2-yl)acetamide], for which the IC50 on SSTR1 is 10 µM; on SSTR4 [1], 0.0631 µM. For the same compound, the EC50 at SSTR4 [2] was 0.00631 µM.
